Here are results for 24 molecules from publication PMC11357446, “Searching for Novel HDAC6/Hsp90 Dual Inhibitors with Anti-Prostate Cancer Activity: In Silico Screening and In Vitro Evaluation” (Pharmaceuticals, 2024).

One experiment has as its target HDAC6 (UniProt ID: Q9UBN7).
Assay: not given
Details: method as in ChEMBL [62]. The following applies: ChEMBL record on recombinant protein; ref ChEMBL [62]; read-out: HDAC6 IC50 (Standard Value); cited from earlier work.
Take `O=C(NO)c1ccc(CN2C(=O)CNC(=O)[C@H]2Cc2c[nH]c3ccccc23)cc1` [CHEMBL481719]: the half-maximal inhibitory concentration (IC50) is 110 nM.

As for `O=C(NCc1ccc(CN2CCOCC2)cc1)c1ccc(-c2noc(C(F)(F)F)n2)cc1` [CHEMBL3692580], the IC50 was 5700 nM.

On to `CC(C)(C)c1cc2ccccc2n1Cc1ccc(C(=O)NO)cc1` [CHEMBL4468860], for which the 50% inhibitory concentration (IC50) was 2000 nM.

Consider `Cc1cc(NC(=O)c2ccc(-c3noc(C(F)(F)F)n3)cc2)cc(C)n1` [CHEMBL3692604], for which the IC50 was 5300 nM.

`C[C@H](CN1CCOCC1)NC(=O)c1ccc(-c2noc(C(F)(F)F)n2)cc1` [CHEMBL3692680]: the IC50 is 6700 nM.

In the case of `O=C(Cc1ccc(-c2noc(C(F)(F)F)n2)cc1)N1CCOCC1` [CHEMBL3688148], the half-maximal inhibitory concentration (IC50) was 5500 nM.

With `Cc1cc(NC(=O)c2ccc(-c3noc(C(F)(F)F)n3)cc2F)cc(C)n1` [CHEMBL3692624], the half-maximal inhibitory concentration (IC50) was 2500 nM.

For the molecule `O=C(Nc1ccnc(C(F)(F)F)c1)c1ccc(-c2noc(C(F)(F)F)n2)cc1` [CHEMBL3692610], the IC50 was 8600 nM.

For the molecule `CC(C)(C)c1ccc(CN2Cc3ccc(/C=C/C(=O)NO)cc3C2=O)cc1` [CHEMBL247218], the IC50 is 990 nM.

For the molecule `C[C@H](CN1CCOCC1)NC(=O)c1ccc(-c2noc(C(F)(F)F)n2)cc1F` [CHEMBL3692681], the IC50 is 3200 nM.

For `C[C@H](CN1CCCCC1)NC(=O)c1ccc(-c2noc(C(F)(F)F)n2)cc1F` [CHEMBL3692663], the IC50 is 3000 nM.

`Cc1c(C)n(Cc2ccc(C(=O)NO)cc2)c2ccccc12` [CHEMBL3971436]: the IC50 is 4.08 nM.

`O=C(NC1CCCCC1O)c1ccc(-c2noc(C(F)(F)F)n2)cc1` (stereo not shown) [CHEMBL3692597]: the IC50 is 7100 nM.

For the molecule `N#Cc1cc(NC(=O)c2ccc(-c3noc(C(F)(F)F)n3)cc2)ccn1` [CHEMBL3692609], the IC50 was 6100 nM.

Regarding `CN1CC(=O)N2Cc3c(c4ccccc4n3Cc3ccc(C(=O)NO)cc3)CC2C1=O` (stereo not shown) [CHEMBL4292944], the IC50 is 13.6 nM.

For the molecule `CC(C)c1nc2ccccc2n1Cc1ccc(C(=O)NO)cc1` [CHEMBL3926575], the IC50 was 47 nM.

With `COc1cc(NC(=O)c2ccc(-c3noc(C(F)(F)F)n3)cc2)ccn1` [CHEMBL3692603], the concentration for half-maximal inhibition (IC50) was 8300 nM.

`CC(C)CN1CC(=O)N2Cc3c(c4ccccc4n3Cc3ccc(C(=O)NO)cc3)CC2C1=O` (stereo not shown) [CHEMBL4284297]: the IC50 is 3.78 nM.

For the molecule `O=C(Nc1ccncc1)c1ccc(-c2noc(C(F)(F)F)n2)cc1` [CHEMBL3692583], the IC50 is 2100 nM.

With `O=C(Nc1cccnc1)c1ccc(-c2noc(C(F)(F)F)n2)cc1` [CHEMBL3692584], the IC50 is 4800 nM.

For `O=C(/C=C/c1ccc2c(c1)C(=O)N(Cc1ccccc1)C2)NO` [CHEMBL247217], the concentration for half-maximal inhibition (IC50) is 230 nM.

The next experiment has as its system LNCaP prostate cancer cells. The experiment can be described thus: Cell viability assay (PrestoBlue) on LNCaP cells. Format: cell-based, human. The following applies: Homo sapiens, LNCaP, 72 h, 72 h treatment; PrestoBlue; mean of three independent experiments ± SEM; read-out: LNCaP GI50. As to the method:
(§1) The human prostate cancer cell line PC-3 (ATCC Cat# CRL-1435) was grown in Ham’s F12 (Biowest, Nuaillé, France) medium, while the human prostate cancer cell line LNCaP (ATCC Cat# CRL-1740) was grown in RPMI 1640 (Biowest, Nuaillé, France) medium. Both media were supplemented with 10% Fetal Bovine Serum (FBS, Gibco, Fisher Scientific Italia, Segrate, Italy), 2 mM glutamine, 100 U/mL penicillin, and 100 μg/mL streptomycin. PC-3 and LNCaP cells were maintained at 37 °C in a humidified 5% CO2 atmosphere.
(§2) PC-3 and LNCaP cells were seeded at a density of 4000 and 6000 cells/well into a 96-well plate, respectively, together with a calibration curve of known cell numbers. The following day, the cells were treated with the indicated test compounds at different concentrations starting at 75μM with 2-fold serial dilutions. Cell viability was evaluated after 72h by colorimetric MTT (PC-3) or PrestoBlue™ (LNCaP) cell viability reagents. A total of 0.5 mg/mL of thiazolyl blue tetrazolium bromide (MTT) (Sigma-Aldrich, St. Louis, MO, USA) in Ham’s F12 medium was added to the wells, and the plate was incubated at 37 °C for 2 h. Medium containing unconverted MTT was removed, and 100 μL of MTT solvent (4 mM HCl, 0.1% NP40, in isopropyl alcohol) was added to the wells in order to solubilize MTT crystals. After 15 min of incubation at room temperature, the absorbance values at 570 nm were obtained with a Multiskan FC Microplate Photometer (Thermo Fisher Scientific, Waltham, MA, USA). PrestoBlue reagent (#A13261, Thermo Fisher Scientific, Waltham, MA, USA) was added to the medium (1:10 v/v) and incubated for 1 h at 37 °C. Cell viability was calculated by quantifying PrestoBlue reduction by measuring the absorbance at 570 and 620 nm, according to the manufacturer’s protocol. The viability of untreated cells was arbitrarily set at 100%, and the concentration at which cellular growth is inhibited by 50% (GI50) was determined. Three independent experiments were performed.
With `CN1CCc2c(c3ccccc3n2Cc2ccc(C(=O)NO)cc2)C1` [Tubastatin-A], the GI50 is 5900 ± 1500 nM.

Consider `COC1=C2C[C@@H](C)C[C@H](OC)[C@H](O)[C@@H](C)/C=C(\C)[C@H](OC(N)=O)[C@@H](OC)/C=C\C=C(/C)C(=O)NC(=CC1=O)C2=O` [Geldanamycin], for which the GI50 was 50 ± 20 nM.

The same experiment, now with this note: Homo sapiens, LNCaP, 72 h, read-out: LNCaP GI50.
With `O=C(CCCCCCC(=O)Nc1ccccc1)NO` [SAHA, Vorinostat], the GI50 was determined as 1300 ± 300 nM.

The test system of the next experiment is PC-3 prostate cancer cells. As to the kind of experiment: Cell viability assay (MTT) on PC-3 cells. Format: cell-based, human. The conditions noted are these: Homo sapiens, PC-3, 72 h, 72 h treatment; MTT; mean of three independent experiments ± SEM; read-out: PC-3 GI50. As for the experimental part: as §1, §2
`CN1CCc2c(c3ccccc3n2Cc2ccc(C(=O)NO)cc2)C1` [Tubastatin-A]: the GI50 is 11100 ± 1600 nM.

Consider `COC1=C2C[C@@H](C)C[C@H](OC)[C@H](O)[C@@H](C)/C=C(\C)[C@H](OC(N)=O)[C@@H](OC)/C=C\C=C(/C)C(=O)NC(=CC1=O)C2=O` [Geldanamycin], for which the 50% growth inhibitory concentration (GI50) came out at 30 ± 20 nM.

Staying with this experiment, now noted: Homo sapiens, PC-3, 72 h, read-out: PC-3 GI50.
In the case of `O=C(CCCCCCC(=O)Nc1ccccc1)NO` [SAHA, Vorinostat], the GI50 worked out at 1900 ± 200 nM.

The test system of the next experiment is acetylated tubulin (Ac-Tub) in LNCaP cells. The experiment can be described thus: Western blot of acetylated α-Tubulin in LNCaP cells. The class given is cell-based, human. The following applies: 24 h at GI50 concentration, normalized with Tubulin. As for the experimental part:
To assess whether the observed antiproliferative activity of the selected compounds was a consequence of HDAC6-targeting, we examined the effect of the cell treatments on the expression levels of acetylated tubulin (Ac-Tub), a well-known HDAC6 target. LNCaP and PC-3 cells were treated with the tested compounds at their GI50 concentrations, and SDS-PAGE and western blot were performed. In addition, the acetylation levels of histone H3, which are mainly regulated by HDAC1, were also evaluated in order to exclude potential class I-HDAC off-target activities. We used Tubastatin-A and Geldanamycin as reference controls for cellular effects resulting from HDAC6- and Hsp90-inhibition, respectively. The results in Figure 2 show a significant increase in α-Tubulin acetylation in LNCaP cells after treatments with compounds 8, 11 and 18. Indeed, these compounds triggered a 2.9-, 5.1-, and 2.5-fold increase, respectively, compared to the control (DMSO). […].
Figure 2 Western blot analysis and relative quantification of the expression levels of acetylated-Tubulin (Ac-TUB), acetylated H3 (Ac-H3), and HSP70 in LNCaP (A,B) and PC-3 (C,D) cells treated for 24 h at GI50 concentration. Tubastatin-A was used as HDAC6-specific positive control, Geldanamycin (GELDA) as HSP90-specific positive control, and SAHA as pan-HDAC inhibitor. Protein expression was normalized with Tubulin levels (Ac-TUB and HSP70) or total H3 (Ac-H3). Quantification is reported as fold change in treated cells versus DMSO control (CTR), arbitrarily set at 1 (one sample t-test p-values: * p < 0.05, ** p < 0.01, *** p < 0.001, **** p < 0.0001; n = 3).
Cell treatment. PC-3 and LNCaP cells were grown in 12-well tissue-culture plates and treated with test compounds at the evaluated GI50 concentration for each candidate inhibitor for 24 h. DMSO was used as a negative control, while Tubastatin-A and Geldanamycin were used as positive controls for HDAC6 and Hsp90 inhibition, respectively. Vorinostat (SAHA) was used as a pan-HDACi control. […] Protein quantitation was performed with Pierce Detergent Compatible Bradford Assay (#23246, Thermo Fisher Scientific, MA, USA), and equivalent amounts of cellular extracts were resolved by SDS-PAGE, transferred to PVDF or Nitrocellulose membrane with Trans-Blot Turbo Transfer System (Bio-Rad, Hercules, CA, USA), and immunoblotted with the following primary antibodies, diluted 1:1000 in 1× TBS with 1 mg/mL BSA: Anti-Histone H3 (#PA5-16183, Invitrogen, Thermo Fisher Scientific, MA, USA), Anti-acetylated histone H3 (#sc-518011, Santa Cruz Biotechnology, Inc., Dallas, TX, USA), Anti-Tubulin (#E-AB-20073, Elabscience, Houston, TX, USA), Anti-acetylated α-tubulin (#sc-23950, Santa Cruz), and Anti-HSP70 (#4872S, Cell Signaling Technology, Inc., Danvers, MA, USA). […]
For `CN1CCc2c(c3ccccc3n2Cc2ccc(C(=O)NO)cc2)C1` [Tubastatin-A], the “α-Tubulin acetylation, fold increase compared to the control (DMSO)” value was found to be 3.3 fold.
